The test system of data set [1] is Mycobacterium tuberculosis (strain H37RV). Description: In-vitro testing of compounds against M. tuberculosis (growth inhibition, Resazurin fluorescence). It counts as cell-based. The note with it: bacterial growth inhibition, 7 days at 37° C.; for IC50: Mycobacterium tuberculosis, 168 h, read-out: M. tuberculosis (pIC50) (converted). A general note: Alamar Blue is a resazurin reagent that responds to reducing activity.

The next data set concerns M. Smegmatis ATCC607. The experiment in a line: In-vitro anti-bacterial activity against strain M. smegmatis ATCC607 (growth inhibition, Alamar Blue fluorescence). It counts as cell-based. The note with it: 48 hours at 37° C.; for IC50: Mycolicibacterium smegmatis, read-out: M. smegmatis (pIC50) (converted). As for the experimental part:
D.2. In-vitro Method for Testing Compounds for Anti-bacterial Activity Against Strain M. Smegmatis ATCC607. Flat-bottom, sterile 96well plastic microtiter plates were filled with 180 μl of sterile deionized water, supplemented with 0.25% BSA. Subsequently, stock solutions (7.8× final test concentration) of compounds were added in 45 μl volumes to a series of duplicate wells in column 2 so as to allow evaluation of their effects on bacterial growth. Serial five-fold dilutions (45 μl in 180 μl) were made directly in the microtiter plates from column 2 to 11 using a customised robot system (Zymark Corp., Hopkinton, Mass.). Pipette tips were changed after every 3 dilutions to minimize pipetting errors with high hydrophobic compounds. Untreated control samples with (column 1) and without (column 12) inoculum were included in each microtiter plate. Approximately 250 CFU per well of bacteria inoculum, in a volume of 100 μl in 2.8× Mueller-Hinton broth medium, was added to the rows […]. The same volume of broth medium without inoculum was added to column 12 in row A to H. The cultures were incubated at 37° C. for 48 hours in a humidified 5% CO2 atmosphere (incubator with open air valve and continuous ventilation). At the end of incubation, two days after inoculation, the bacterial growth was quantitated fluorometrically. Therefore Alamar Blue (10×) was added to all wells in a volume of 20 μl and plates were incubated for another 2 hours at […] The fluorescence was read in a computer-controlled fluorometer (Cytofluor, Biosearch) at an excitation wavelength of 530 nm and an emission wavelength of 590 nm (gain 30). The % growth inhibition achieved by the compounds was calculated according to standard methods. The pIC50 was defined as the 50% inhibitory concentration for bacterial growth.

The structures appear in SMILES notation.

Take `CN(C)CCC(O)(c1ccccc1)c1cc(Br)cc2cc(Cc3ccccc3)c(OCCN3CCCCC3)nc12` (stereo not shown) [Compound 11]: the IC50 (in data set [1]; with M. Smegmatis ATCC607) was 3.16 µM each time.

Turning to `CN(C)CCC(O)(c1ccccc1)c1cc(Br)cc2cc(Cc3ccccc3)c(N3CCCC3)nc12` (stereo not shown) [Compound 80], in data set [1], the “M. tuberculosis (pIC50)” value came to 5.05. The “M. smegmatis (pIC50)” value in the data set on M. Smegmatis ATCC607 is given as 6.1.

For the compound `CN(C)CCC(O)(c1ccccc1)c1cc(Br)cc2cc(Cc3ccccc3)c(N3CCN(Cc4ccccc4)CC3)nc12` (stereo not shown) [Compound 79], in data set [1], the “M. tuberculosis (pIC50)” value came out at 4.6. Also, in the data set with M. Smegmatis ATCC607, the “M. smegmatis (pIC50)” value is recorded as 6.2.

`CN(C)CCOc1nc2c(C(O)(CCN(C)C)c3ccccc3)cc(Br)cc2cc1Cc1ccccc1` (stereo not shown) [Compound 75]: the IC50 in data set [1] was 5.01 µM; in the data set on M. Smegmatis ATCC607, 6.31 µM.

In the case of `CN(C)CCC(O)(Cc1c(Cc2ccccc2)c(-c2cccnc2)nc2ccccc12)c1cc(F)cc(F)c1` (stereo not shown) [Compound 9], the melting point worked out at 164 °C. Moreover, in the data set with M. Smegmatis ATCC607, the IC50 was 6.31 µM.

As usually defined, the melting point is the temperature, or range, at which the solid turns liquid.
